# Source: patent US20050147698A1, “Co-beadlet of dha and rosemary and methods of use” (Alcon, Inc., priority 2003, published 2005)
# Test system: retinas
# Assay: protection of retinas from acute light-induced toxicity
# Assay type: in vivo
# Conditions: no data or method given
substance,measurement,value
Vitamin E,protection of retinas from acute light-induced toxicity,effective in protecting retinas from acute light-induced toxicity
